Measurements published in patent US12251373B2, “Compounds and methods of treating retinal degeneration” (CASE WESTERN RESERVE UNIVERSITY, priority 2017, dated 2025).

Key:
[1] = Quantification of YC-001 in mouse eye by HPLC; format: in vivo
Description: To measure the amount of YC-001 in the eye following systemic delivery, YC-001 was administered to C57BL6 mice by i.p. injection at a dose of 200 mg kg^−1 bw. Mice then were euthanized at 30 min, 3 h and 24 h after these injections, and their eyes were removed for analysis. Eyes from two mice under the same treatment were homogenized on ice in 1 mL of PBS:methanol (1:1 ratio). Four-mL of hexanes were then added to the homogenized sample, and the mixture was vortexed for 15 s. The mixture was centrifuged at 3,220 g for 15 min at 4° C. to separate the hexanes from the aqueous layer. From the top hexane layer, 3.5 mL was transferred to a glass vial. This sample was then dried in a Savant speed vacuum concentrator (Thermofisher, Waltham, Massachusetts, USA) and dissolved in 300 μL methanol. One hundred-μL of dissolved sample were injected into an HPLC system connected to an Agilent Sil column (5 μm, 4.6×250 mm; Agilent Technologies, Santa Clara, CA) for separation with 10% ethyl acetate in hexanes at a flow rate 1.4 mL min^−1. A chromatogram of absorption at 340 nm was then obtained. A YC-001 standard was subjected to the same procedures as the ocular samples and used to establish a retention time at 13.2 min. By comparing ocular samples to its standard curve of YC-001, the amount of YC-001 was then quantified in pmol eye^−1 at different time points after its systemic administration. The identity of YC-001 in the peak fraction with a retention time of 13.2 min was confirmed by LC-MS using the same chromatography method as applied for HPLC.

ovine COX-1 = target: T1, ovine COX-1 (Ovis aries, UniProt P05979); test: COX-1 activity assay; format: biochemical; conditions: up to 80 μM of YC-001
T1 construct: purchased Abcam
T1 sequence (P05979 25-600): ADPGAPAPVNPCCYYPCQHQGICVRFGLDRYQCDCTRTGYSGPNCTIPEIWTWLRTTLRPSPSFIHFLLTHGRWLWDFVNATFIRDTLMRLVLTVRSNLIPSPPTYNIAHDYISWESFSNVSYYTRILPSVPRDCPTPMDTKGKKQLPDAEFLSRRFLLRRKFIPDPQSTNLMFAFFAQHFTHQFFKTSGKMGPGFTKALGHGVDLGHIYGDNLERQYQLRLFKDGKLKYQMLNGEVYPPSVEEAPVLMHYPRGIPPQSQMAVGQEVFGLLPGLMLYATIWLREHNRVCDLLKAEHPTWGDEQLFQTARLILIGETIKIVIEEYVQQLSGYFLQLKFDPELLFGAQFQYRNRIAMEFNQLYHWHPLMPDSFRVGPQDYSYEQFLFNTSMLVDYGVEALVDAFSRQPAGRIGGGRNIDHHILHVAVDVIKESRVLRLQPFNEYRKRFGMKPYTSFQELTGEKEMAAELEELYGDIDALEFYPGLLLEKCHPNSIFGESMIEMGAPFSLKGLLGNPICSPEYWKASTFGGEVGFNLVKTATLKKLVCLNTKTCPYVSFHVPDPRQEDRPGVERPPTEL
Description: The effect of the compound YC-001 on cyclooxygenase 1 (COX-1) activity was evaluated using the COX1 Inhibitor Screening Kit (Abcam, Cambridge, MA, USA) according to the manufacture's protocol. Briefly, the assay is based on the fluorometric detection of Prostaglandin G2, the intermediate product generated by the COX-1 enzyme. COX reaction mix included ovine COX-1, COX probe and COX cofactor and was prepared in a 96-well plate. YC-001 working solutions were dissolved in DMSO, and then mixed with COX Reaction Mix to the final concentrations (80, 40, 20, 10, 5, 2.5, 1.25, 0.625, 0.312, 0.156, 0.078 and 0.039 μM). Equivalent volume of DMSO was used as vehicle control and SC560 was used as a positive control. All controls and samples were measured in triplicate. Then Arachidonic Acid was added into each well to initiate all the reactions at the same time. The fluorescence was measured at Ex/Em=535/587 nm in a kinetic mode for 15 min at 25° C. Five time points were chosen in the linear range of the plot and the corresponding values for the fluorescence were used to calculate the slope of the linear regression equation. Relative COX-1 activity was calculated as Equation 5: […]

O=C1OCC(c2ccc(Cl)s2)=C1c1cccs1 [YC-001]
amount of YC-001 per eye ([1]; 0.5 h after i.p. injection at 200 mg kg−1 bw): About 70 pmol per eye | amount of YC-001 per eye ([1]; 3 h after i.p. injection at 200 mg kg−1 bw): 280 pmol per eye | amount of YC-001 per eye ([1]; 24 h after i.p. injection at 200 mg kg−1 bw): undetectable | COX-1 enzymatic activity (ovine COX-1): didn't see changes
